This is an account of results in patent publication US20250289813A1, “CDK INHIBITORS, PHARMACEUTICAL COMPOSITIONS, AND THERAPEUTIC APPLICATIONS” (ONQUALITY PHARMACEUTICALS CHINA LTD., priority 2022, published 2025).

One may read the IC50 as the midpoint of a concentration-inhibition curve. What is called EC50 is the concentration at which the effect is half-maximal.

The target in one test is CDK6/cyclin D1 (Homo sapiens (Human), UniProt Q00534). Briefly: CDK6 Caliper Mobility Shift assay. Format: biochemical. Put shortly:
(§1)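 Caliper mobility-shift kinase assay with FAM-labeled peptide substrate. CDK4/cyclin D1 (15 nM) ran in 20 mM HEPES pH 7.5, 0.01% Triton X-100 at […] ATP; CDK6/cyclin D1 (7.5 nM) in 50 mM HEPES pH 7.5, 0.0015% BRIJ-35 at […] ATP. Compound was pre-incubated 10 min, reactions ran at 28 °C, and IC50 came from percent conversion inhibition.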

The next test has as its target CDK4/cyclin D1 (Homo sapiens (Human), UniProt P11802). Briefly: CDK4 Caliper Mobility Shift assay. The test is classed as biochemical. The method, boiled down: as §1
For test [1], the system named is COLO205 human colon cancer cells. In words: CASPASE-GLO 3/7 apoptosis assay (protection against chemotherapy drug induced cytotoxicity). Format: cell-based. The procedure:
The CASPASE-GLO 3/7 apoptosis assay was used to evaluate the protective effect of a compound on the cytotoxicity induced by a chemotherapy drug. The apoptosis assay was carried out using COLO205 human colon cancer cells. The cells were grown at 37° C. in a 5% CO2 humidified incubator in PRIM1640 supplemented with 10% FBS and 0.01 mg/mL bovine insulin. The cells were seeded at 4,000 cells/well in a 96-well plate. After incubated overnight, the cells were pretreated with a compound at predetermined concentrations or a vehicle for 16 h, followed by addition of a chemotherapy drug. After incubated for another 48 h, the CASPASE-GLO 3/7 reagent (100 μL/well) was added. The cells were mixed on an orbital shaker for 10 min and incubated at room temperature for 2 h. The 96-well plate was read with an ENVISION reader.

Test [2] has as its system BALB/c mice. In words: Irinotecan-induced diarrhea/constipation mouse model. The test is classed as in vivo. The conditions noted are these: Day 7. The procedure: A compound was evaluated in an irinotecan-induced diarrhea/constipation mouse model for its protective effect on the cytotoxicity induced by a chemotherapy drug. On day 0, BALB/c mice (20-25 g, 7-8 weeks of age) were randomly divided into 3 groups (vehicle, irinotecan, and compound treatment) with 10 mice in each group. In the vehicle group, the mice were administered orally with the same medium in the same amount as used in the treatment group for the compound and then injected with the same medium in the same amount as used in the irinotecan group. In the irinotecan group, the mice were administered orally with the same medium in the same amount as used in the treatment group for the compound and then injected with irinotecan (240 mg/kg). In the treatment group, the mice were administrated orally with the compound and then injected with irinotecan (240 mg/kg). The compound was formulated with a 0.5% CMC solution. […]
On Day 7, the diarrhea grade of each mouse was determined according to the method described in Kurita et al., Cancer Chemother. Pharmacol. 2000, 46, 211-20, the disclosure of which is incorporated herein by reference in its entirety. The diarrhea remission rates were calculated using the formula of Diarrhea remission rate (%)=(diarrhea grade in […]−diarrhea grade in treatment group)/diarrhea grade in 5-FU group×100%.

In test [3] the test system is MCF-7 human breast cancer cells. In words: CELLTITER-GLO luminescent cell viability assay. Format: cell-based. To be noted: MCF7, 192 h, MCF-7 cells, 8 days, read-out: EC50 (Effect on Cell Viability). Put shortly: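 MCF-7 cells grown in EMEM with 10% FBS and insulin, seeded at 3,000 cells/well and left to adhere overnight. Compound exposure lasted 8 days at 37 °C; viability was read by CellTiter-Glo luminescence.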
For orientation: In ATP-based viability assays light output follows the ATP content of the culture.

Test [4] deals with BALB/c mice. Briefly: 5-FU-induced diarrhea mouse model. The test is classed as in vivo. The conditions noted are these: 8 h before and 4 h after 5-FU (175 mg/kg), day 7. As for the experimental part:
A compound was evaluated in a 5-FU-induced diarrhea mouse model for its protective effect on the cytotoxicity induced by the chemotherapy drug 5-FU. On day 0, BALB/c mice (20-25 g, 7-8 weeks of age) were randomly divided into 3 groups (vehicle, 5-FU, and compound treatment) with 10 mice in each group. In the vehicle group, the mice were administered orally with the same medium in the same amount as used in the treatment group for the compound and then injected with the same medium in the same amount as used in the 5-FU group. In the 5-FU group, the mice were administered orally with the same medium in the same amount as used in the treatment group for the compound and then injected with 5-FU (175 mg/kg). In the treatment group, the mice were administrated orally with the compound and then injected with 5-FU (175 mg/kg). The compound was formulated with a 0.5% CMC solution.
On day 7, the diarrhea grade of each mouse was determined according to the method described in Kurita et al., Cancer Chemother. Pharmacol. 2000, 46, 211-20, the disclosure of which is incorporated herein by reference in its entirety. Diarrhea remission rates were calculated using the formula of Diarrhea remission rate (%)=(diarrhea grade in 5-FU group—diarrhea grade in treatment group)/diarrhea grade in 5-FU group×100%.

CDK4/cyclin D1, sequence (P11802 whole entry): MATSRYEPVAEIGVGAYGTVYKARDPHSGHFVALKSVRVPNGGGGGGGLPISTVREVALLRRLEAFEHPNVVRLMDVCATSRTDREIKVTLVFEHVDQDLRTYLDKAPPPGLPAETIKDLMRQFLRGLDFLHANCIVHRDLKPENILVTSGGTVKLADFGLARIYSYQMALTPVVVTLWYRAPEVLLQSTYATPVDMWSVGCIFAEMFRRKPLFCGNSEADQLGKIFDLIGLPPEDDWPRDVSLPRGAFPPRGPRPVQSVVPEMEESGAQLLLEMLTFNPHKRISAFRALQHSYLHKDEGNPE
CDK4/cyclin D1, sequence (P24385 whole entry partner): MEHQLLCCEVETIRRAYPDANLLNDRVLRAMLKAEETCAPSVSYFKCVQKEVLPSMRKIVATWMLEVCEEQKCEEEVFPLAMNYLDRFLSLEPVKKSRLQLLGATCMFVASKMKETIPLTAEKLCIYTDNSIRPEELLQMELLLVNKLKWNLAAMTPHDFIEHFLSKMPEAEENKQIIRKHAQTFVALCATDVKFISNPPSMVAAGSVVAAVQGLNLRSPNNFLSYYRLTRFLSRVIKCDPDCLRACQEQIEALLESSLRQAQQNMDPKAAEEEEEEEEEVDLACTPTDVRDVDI
CDK6/cyclin D1, sequence (Q00534 whole entry): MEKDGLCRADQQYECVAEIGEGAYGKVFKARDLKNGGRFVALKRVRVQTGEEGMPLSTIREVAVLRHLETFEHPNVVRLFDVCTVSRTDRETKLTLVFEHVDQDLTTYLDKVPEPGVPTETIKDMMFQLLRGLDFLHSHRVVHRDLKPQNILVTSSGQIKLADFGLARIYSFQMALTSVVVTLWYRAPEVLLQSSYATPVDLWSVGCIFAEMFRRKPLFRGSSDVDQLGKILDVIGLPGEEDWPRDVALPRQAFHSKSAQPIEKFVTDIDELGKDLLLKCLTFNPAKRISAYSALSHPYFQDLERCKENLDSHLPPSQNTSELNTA
CDK6/cyclin D1, sequence (P24385 whole entry partner): as the sequence (P24385 whole entry partner) above

On to `CC(=O)c1c(C)c2cnc(Nc3ccc(N4CCN(S(=O)(=O)NC(=O)OCCO)CC4)cn3)nc2n(C2CCCC2)c1=O` [Compound A1, 2-hydroxyethyl ((4-(6-((6-acetyl-8-cyclopentyl-5-methyl-7-oxo-7,8-dihydropyrido[2,3-d]pyrimidin-2-yl)amino)pyridin-3-yl)piperazin-1-yl)sulfonyl)carbamate], for which the IC50 at CDK6/cyclin D1 and on CDK4/cyclin D1 was at most 0.2 µM each time. For the same compound, the “RPR (relative protection rate)” value in test [1] (compound 0.1 μM, 5-Fu (10 μM)) is reported as 13%; in test [1] (compound 1 μM, 5-Fu (10 μM)), 82%; in test [1] (compound 5 μM, 5-Fu (10 μM)), 90%; in test [1] (compound 10 μM, 5-Fu (10 μM)), 68%; in test [1] (compound 100 μM, 5-Fu (10 μM)) it was 11%. For the same compound, the “Remission Rate (diarrhea remission rate)” value with BALB/c mice [2] (5 mg/kg oral, 4 h before and 8 h after irinotecan (240 mg/kg)) amounted to 50%; in the test on BALB/c mice [2] (25 mg/kg oral, 4 h before and 8 h after irinotecan (240 mg/kg)) it was 70%; in the test on BALB/c mice [2] (100 mg/kg oral, 4 h before and 8 h after irinotecan (240 mg/kg)), 20%. Besides, in test [3], the EC50 was over 10 µM.

On to `CC(=O)c1c(C)c2cnc(Nc3ccc(N4CCN(S(=O)(=O)NC(=O)[C@H](C)N)CC4)cn3)nc2n(C2CCCC2)c1=O` [Compound A6, (S)—N-((4-(6-((6-acetyl-8-cyclopentyl-5-methyl-7-oxo-7,8-dihydropyrido[2,3-d]-pyrimidin-2-yl)amino)pyridin-3-yl)piperazin-1-yl)sulfonyl)-2-aminopropanamide], for which the IC50 at CDK6/cyclin D1 and on CDK4/cyclin D1 was at most 0.2 µM in each case. Moreover, the “Remission Rate (diarrhea remission rate)” value in the test on BALB/c mice [4] (5 mg/kg oral) came out at 20%; in the test with BALB/c mice [4] (50 mg/kg oral), 66%; in the test with BALB/c mice [4] (100 mg/kg oral), 33%. In addition, the “RPR (relative protection rate)” value in test [1] (compound 0.01 μM, Irinotecan (20 μM)) was 20%; in test [1] (compound 0.2 μM, Irinotecan (20 μM)) it was 36%; in test [1] (compound 2 μM, Irinotecan (20 μM)) it was 89%; in test [1] (compound 20 μM, Irinotecan (20 μM)) it was 73%; in test [1] (compound 50 μM, Irinotecan (20 μM)), 57%. In addition, the EC50 in test [3] is at most 1 µM.

For the compound `CC(=O)c1c(C)c2cnc(Nc3ccc(N4CCN(S(=O)(=O)N5CC(CO)OC5=O)CC4)cn3)nc2n(C2CCCC2)c1=O` (centres unmarked) [Compound A12, 3-((4-(6-((6-Acetyl-8-cyclopentyl-5-methyl-7-oxo-7,8-dihydropyrido[2,3-d]-pyrimidin-2-yl)amino)pyridin-3-yl)piperazin-1-yl)sulfonyl)-5-(hydroxymethyl)oxazolidin-2-one], the IC50 at CDK6/cyclin D1 and at CDK4/cyclin D1 was at most 0.2 µM in each case. Besides, the “Remission Rate (diarrhea remission rate)” value in the test with BALB/c mice [4] (10 mg/kg oral) was determined as 50%; with BALB/c mice [4] (25 mg/kg oral), 90%. Moreover, the EC50 in test [3] lay in the range of 1 to 10 µM.

For the compound `CC(=O)NCCOC(=O)NS(=O)(=O)N1CCN(c2ccc(Nc3ncc4c(C)c(C(C)=O)c(=O)n(C5CCCC5)c4n3)nc2)CC1` [Compound A15, 2-Acetamidoethyl ((4-(6-((6-acetyl-8-cyclopentyl-5-methyl-7-oxo-7,8-dihydropyrido[2,3-d]pyrimidin-2-yl)amino)pyridin-3-yl)piperazin-1-yl)sulfonyl)carbamate], the IC50 on CDK6/cyclin D1 was at most 0.2 µM; at CDK4/cyclin D1 it was 0.2 to 0.5 µM. Moreover, the “RPR (relative protection rate)” value in test [1] (compound 0.1 μM, 5-Fu (10 μM)) was 28%; in test [1] (compound 1 μM, 5-Fu (10 μM)), 84%; in test [1] (compound 10 μM, 5-Fu (10 μM)), 71%. In addition, the “Remission Rate (diarrhea remission rate)” value in the test with BALB/c mice [2] (10 mg/kg oral, 4 h before and 8 h after irinotecan (240 mg/kg)) is recorded as 40%; in the test with BALB/c mice [2] (50 mg/kg oral, 4 h before and 8 h after irinotecan (240 mg/kg)), 60%. For the same compound, the EC50 in test [3] fell in the range of 1 to 10 µM.

`CC(=O)c1c(C)c2cnc(Nc3ccc(N4CCN(S(=O)(=O)NC(=O)OC5CCOCC5)CC4)cn3)nc2n(C2CCCC2)c1=O` [Compound A22, Tetrahydro-2H-pyran-4-yl ((4-(6-((6-acetyl-8-cyclopentyl-5-methyl-7-oxo-7,8-dihydropyrido[2,3-d]pyrimidin-2-yl)amino)pyridin-3-yl)piperazin-1-yl)sulfonyl)carbamate]: the IC50 at CDK6/cyclin D1 is at most 0.2 µM; on CDK4/cyclin D1, 0.2 to 0.5 µM. The “Remission Rate (diarrhea remission rate)” value with BALB/c mice [4] (50 mg/kg oral) turned out to be 55%; in the test with BALB/c mice [4] (100 mg/kg oral) it was 36%; in the test on BALB/c mice [2] (5 mg/kg oral, 6 h before and 6 h after irinotecan (240 mg/kg)) it was 30%; in the test with BALB/c mice [2] (25 mg/kg oral, 6 h before and 6 h after irinotecan (240 mg/kg)), 50%. Also, the “RPR (relative protection rate)” value in test [1] (compound 0.5 μM, 5-Fu (10 μM)) was determined as 26%; in test [1] (compound 25 μM, 5-Fu (10 μM)), 64%. In addition, the EC50 in test [3] is over 10 µM.

With `CC(=O)c1c(C)c2cnc(Nc3ccc(N4CCN(S(=O)(=O)NC(=O)OCCNC(=O)[C@H](N)C(C)C)C[C@@H]4C)cn3)nc2n(C2CCCC2)c1=O` [Compound A55, 2-((R)-2-Amino-3-methylbutanamido)ethyl (((S)-4-(6-((6-acetyl-8-cyclopentyl-5-methyl-7-oxo-7,8-dihydropyrido[2,3-d]pyrimidin-2-yl)amino)pyridin-3-yl)-3-methylpiperazin-1-yl)sulfonyl)carbamate], the IC50 on CDK6/cyclin D1 and at CDK4/cyclin D1 was at most 0.2 µM each time. Besides, the “RPR (relative protection rate)” value stood at 38% in test [1] (compound 0.1 μM, 5-Fu (10 μM)) and 88% in test [1] (compound 10 μM, 5-Fu (10 μM)). Further, the EC50 in test [3] fell in the range of 1 to 10 µM.

Regarding `CCS(=O)(=O)N1CCN(c2ccc(Nc3ncc4c(C)c(C(C)=O)c(=O)n(C5CCCC5)c4n3)nc2)CC1` [Compound C2, 6-Acetyl-8-cyclopentyl-2-((5-(4-(ethylsulfonyl)piperazin-1-yl)pyridin-2-yl)-amino)-5-methylpyrido[2,3-d]pyrimidin-7(81)-one], the IC50 on CDK6/cyclin D1 and on CDK4/cyclin D1 was at most 0.2 µM throughout. Also, the “Remission Rate (diarrhea remission rate)” value with BALB/c mice [4] (75 mg/kg oral) is reported as 50%; in the test with BALB/c mice [2] (75 mg/kg oral, 4 h before and 8 h after irinotecan (240 mg/kg)) it was 30%. Besides, the “RPR (relative protection rate)” value is on record as 59% in test [1] (compound 0.2 μM, 5-Fu (10 μM)); 79% in test [1] (compound 2 μM, 5-Fu (10 μM)); 87% in test [1] (compound 20 μM, 5-Fu (10 μM)).
